Reference: patent publication US8058468B2, “Carbamate antibiotics” (Nederlandse Organisatie Voor …, priority 2005, dated 2011)
≈ marks a conversion by molar mass, not a printed value. Like-named read-outs stand apart in the source and are kept apart here.

Key:
[1] = test system: multiple strains of S. aureus; assay: MIC test on multiple strains of S. aureus; type: cell-based, Staphylococcus aureus; conditions: for MIC 50 / MIC 90: 59-60 tested S. aureus strains; for Range MIC (lowest-highest): highest: highest value over 59-60 tested S. aureus strains; for Range MIC (lowest-highest): lowest: lowest value over 59-60 tested S. aureus strains
Experimental: MIC test were performed according to standard methodology: M7-A6-“Methods for Dilution Antimicrobial Susceptibility Tests for Bacteria That Grow Aerobically”; Approved Standard, Sixth Edition Clinical and Laboratory Standards Institute 2005 (CLSI/formerly NCCLS). The MIC values are expressed as a range between the lowest value and the highest value found in these experiments. Both the average MIC50 and MIC90 are indicated in bold.

S. aureus MW2 = assay: MIC test (CLSI M7-A6), single strain; type: cell-based; conditions: Staphylococcus aureus
Experimental: (§1) MIC test were performed according to standard methodology: M7-A6-“Methods for Dilution Antimicrobial Susceptibility Tests for Bacteria That Grow Aerobically”; Approved Standard, Sixth Edition Clinical and Laboratory Standards Institute 2005 (CLSI/formerly NCCLS).
(§2) Table 2 lists the results of 3 different compounds according to Formula (I) on single strains of S. aureus as MIC values expressed in micrograms per milliliter.

S. aureus ATCC 29213 = assay: MIC test (CLSI M7-A6), single strain; type: cell-based; conditions: Staphylococcus aureus, ATCC29213; single strain ATCC 29213
Experimental: as §1, §2

S. aureus N315 = assay: MIC test (CLSI M7-A6), single strain; type: cell-based; conditions: Staphylococcus aureus
Experimental: as §1, §2

[2] = Observation scoring for adverse side effects in infected treated mice; type: in vivo, mouse; conditions: all animals
Experimental: (§3) The purpose of this study was to investigate the antibiotic efficacy of different doses of compound BAS00674552 against a local infection with MRSA 2141 in the mouse. Thirty mice were treated intravenously with 0.5, 5.0 or 50 mg/kg body weight, respectively. The observation period was three days. Outgrowth of the infection was used to establish drug efficacy.

MRSA 2141 = assay: Local thigh muscle infection with MRSA 2141 in the mouse, CFU outgrowth; type: in vivo; conditions: for Log reduction of MRSA 2141 CFU in thigh muscle: vs vehicle; for Reduction of bacterial outgrowth against the untreated group: P≦0.01
Experimental: as §3
The test substances were administered as a solution in dimethylsulfoxide (DMSO). The test substance was administered as 20 μl injections per mouse at all dose levels. Vancomycin was used as positive control and injected intravenously as a 10 mg/ml solution in DMSO (20 μl per mouse).
The study was performed according to Lab-Sop-Amp-Anim-002 and Lab-Sop-Amp-Bac-003. In short, mice were injected with 11E05 MRSA bacteria, strain 2141 in the right thigh muscle, followed one day later by an i.v. injection of the test compound, vancomycin or vehicle in the tail vein. 24 hours later mice were sacrificed, blood was collected by heart puncture and the right thigh muscle was removed. Plasma was prepared from blood samples and stored at −80°±10° C. for possible future analysis. Thigh muscles were weighted and homogenized using an Ultra-Turrax® and dilutions of the homogenate were prepared in saline. Limiting dilutions were plated onto agar plates and two days later the number of MRSA 2141 CFU were determined for each individual mouse as an indication of bactericidal activity of the compound. Additionally, tests were performed to determine if the bacteria used are still oxacillin resistant Staphylococcus aureus. This was done before injection and on pooled thigh muscle isolates per group. For this purpose Staphaurex® (Remel Europe Ltd., Crossways, UK) and ORSAB®+supplements (Oxoid Ltd., Basingstoke, UK) were used. In vivo antibiotic activity is determined by a CFU reduction of >90% (1 log reduction) in comparison to the negative control (vehicle only).
The study was comprised five groups of 10 females each.

S. aureus ATCC6538 = assay: Further MIC tests, performed as in Example 1; type: cell-based; conditions: Staphylococcus aureus
Experimental: as §1
Further MIC tests, performed as in Example 1, were performed on several of the above synthesized compounds.

[3] = duplo (duplicate determination), read-out: MIC-value S. aureus ATCC6538 duplo
[4] = first determination, read-out: MIC-value S. aureus ATCC6538

MIC 50 [1] [microgram/milliliter]	MIC 90 [1] [microgram/milliliter]	Range MIC (lowest-highest): highest [1] [microgram/milliliter]	Range MIC (lowest-highest): lowest [1] [microgram/milliliter]	MIC (S. aureus MW2) [µg/mL]	MIC (S. aureus ATCC 29213) [µg/mL]	MIC (S. aureus N315) [µg/mL]	Structure (SMILES)	MIC (S. aureus ATCC6538; [3]) [µg/mL]	MIC (S. aureus ATCC6538; [4]) [µg/mL]	other results
>32	>32	>32	>32	16 (≈ 49.8 µM)	16 (≈ 49.8 µM)	8 (≈ 24.9 µM)	CCOC(=O)NCCOC(=O)Nc1ccc(Cl)c(Cl)c1 [BAS 00212008, (3,4-dichloro-phenyl)-carbamic acid 2-ethoxycarbonylamino-ethyl ester]			
16	32	>32	8	8 (≈ 22 µM)	8 (≈ 22 µM)	8 (≈ 22 µM)	CCC(COC(=O)Nc1ccc(Cl)c(Cl)c1)NC(=O)OC(C)C (centres unmarked) [BAS 00674544, (3,4-dichloro-phenyl)-carbamic acid 2-isopropoxycarbonylamino-butyl ester]			
							Cc1ccc(NC(=O)OC(C)CNC(=O)OCC(C)C)cc1 (centres unmarked) [TAC 1_005, p-tolyl-carbamic acid 2-isobutoxycarbonylamino-1-methyl-ethyl ester]	50 (≈ 162 µM)	100 (≈ 324 µM)	
							CC(C)COC(=O)NCC(C)OC(=O)Nc1ccc(C(F)(F)F)cc1 (centres unmarked) [TAC 1_007, (4-trifluoromethyl-phenyl)-carbamic acid 2-isobutoxycarbonylamino-1-methyl-ethyl ester]	25 (≈ 69 µM)	12.5 (≈ 34.5 µM)	
							NC(=O)OCCOC(=O)Nc1ccc(Cl)c(Cl)c1 [TAC 1_009, (3,4-dichloro-phenyl)-carbamic acid 2-carbamoyloxy-ethyl ester]	50 (≈ 171 µM)	100 (≈ 341 µM)	
							CNC(=O)OCCOC(=O)Nc1ccc(Cl)c(Cl)c1 [TAC 1_010, (3,4-dichloro-phenyl)-carbamic acid 2-methylcarbamoyloxy-ethyl ester]	50 (≈ 163 µM)	100 (≈ 326 µM)	
							CCNC(=O)OCCOC(=O)Nc1ccc(Cl)c(Cl)c1 [TAC 1_011, (3,4-dichloro-phenyl)-carbamic acid 2-ethylcarbamoyloxy-ethyl ester]	100 (≈ 311 µM)	100 (≈ 311 µM)	
							CN[C@H](CC(C)C)C(=O)N[C@H]1C(=O)N[C@@H](CC(N)=O)C(=O)N[C@H]2C(=O)N[C@H]3C(=O)N[C@H](C(=O)N[C@H](C(=O)O)c4cc(O)cc(O)c4-c4cc3ccc4O)[C@H](O)c3ccc(c(Cl)c3)Oc3cc2cc(c3O[C@@H]2O[C@H](CO)[C@@H](O)[C@H](O)[C@H]2O[C@H]2C[C@](C)(N)[C@H](O)[C@H](C)O2)Oc2ccc(cc2Cl)[C@H]1O [vancomycin, Vancomycin, reference compound]			Log reduction of MRSA 2141 CFU in thigh muscle (MRSA 2141; positive control, 10 mg/ml i.v., 20 μl per mouse (10 mg/kg)): Over 1 Log

Structure (SMILES)	MIC 50 [1] [microgram/milliliter]	MIC 90 [1] [microgram/milliliter]	Range MIC (lowest-highest): highest [1] [microgram/milliliter]	Range MIC (lowest-highest): lowest [1] [microgram/milliliter]	MIC (S. aureus MW2) [µg/mL]	MIC (S. aureus ATCC 29213) [µg/mL]	MIC (S. aureus N315) [µg/mL]	MIC (S. aureus ATCC6538; [3]) [µg/mL]	MIC (S. aureus ATCC6538; [4]) [µg/mL]	other results
CC(C)COC(=O)NCC(C)OC(=O)Nc1ccc(Cl)c(Cl)c1 (centres unmarked) [BAS 00674552, (3,4-dichloro-phenyl)-carbamic acid 2-isobutoxycarbonylamino-1-methyl-ethyl ester]	8	16	>32	4	4 (≈ 11 µM)	8 (≈ 22 µM)	4 (≈ 11 µM)	6.25 (≈ 17.2 µM)	25 (≈ 68.8 µM)	Score on observation scoring sheets (DEC guidelines) [2]: < 8; Adverse side effects ([2]; single i.v. dose 0.5-50 mg/kg): no signs of adverse side effects were observed; Log reduction of MRSA 2141 CFU in thigh muscle (MRSA 2141; 5 mg/kg single i.v. dose, 24 h after dosing): Approximately 2 Log; Reduction of bacterial outgrowth against the untreated group (MRSA 2141; 5 mg/kg): significant reduction of bacterial outgrowth; Log reduction of MRSA 2141 CFU in thigh muscle (MRSA 2141; 50 mg/kg single i.v. dose, 24 h after dosing): Approximately 2 Log; Reduction of bacterial outgrowth against the untreated group (MRSA 2141; 50 mg/kg): significant reduction of bacterial outgrowth; Efficacy against local MRSA 2141 infection (statistical analysis) (MRSA 2141; all doses, P≦0.001): effective
